Legend:
[1] = molecular target: T1, Potassium voltage-gated channel subfamily A member 3 (Homo sapiens, UniProt P22001); test: cell-based; design: species or system Blood
[2] = molecular target: T1, Potassium voltage-gated channel subfamily A member 3; design: species or system Blood

T1 sequence (P22001 whole entry): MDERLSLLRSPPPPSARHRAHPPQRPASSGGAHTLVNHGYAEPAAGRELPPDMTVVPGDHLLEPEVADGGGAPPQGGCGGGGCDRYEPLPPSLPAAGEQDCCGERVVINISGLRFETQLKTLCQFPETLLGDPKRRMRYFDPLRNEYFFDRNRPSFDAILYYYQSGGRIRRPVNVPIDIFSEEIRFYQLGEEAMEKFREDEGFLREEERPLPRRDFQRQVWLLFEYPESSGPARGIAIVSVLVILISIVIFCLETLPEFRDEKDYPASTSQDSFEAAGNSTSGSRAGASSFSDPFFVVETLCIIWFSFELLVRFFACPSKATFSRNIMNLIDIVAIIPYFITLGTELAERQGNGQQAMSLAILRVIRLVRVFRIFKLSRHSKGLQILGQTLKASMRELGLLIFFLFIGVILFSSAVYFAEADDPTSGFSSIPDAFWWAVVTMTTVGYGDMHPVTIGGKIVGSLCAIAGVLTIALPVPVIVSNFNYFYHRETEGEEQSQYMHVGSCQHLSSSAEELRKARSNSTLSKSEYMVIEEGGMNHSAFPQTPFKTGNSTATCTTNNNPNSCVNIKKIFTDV

Structure (SMILES) | IC50 [1] [nM] | IC50 [2] [nM]
CC[C@H](C)[C@@H]1NC(=O)[C@@H](NC(=O)[C@H](CO)NC(=O)[C@@H](N)CCCNC(=N)N)CSSC[C@@H](C(=O)O)NC(=O)[C@H]([C@@H](C)O)NC(=O)CNC(=O)[C@@H]2CSSC[C@@H]3NC(=O)[C@H](CCC(N)=O)NC(=O)[C@H](Cc4ccccc4)NC(=O)[C@H](C)NC(=O)[C@H]([C@@H](C)O)NC(=O)[C@H](CSSC[C@H](NC(=O)[C@H](Cc4ccccc4)NC(=O)[C@H](CCC(=O)O)NC(=O)[C@H](CC(C)C)NC(=O)[C@H](CCCNC(=N)N)NC(=O)[C@H](Cc4ccc(O)cc4)NC(=O)[C@H](CCCCN)NC(=O)[C@H](CCSC)NC(=O)[C@H](CO)NC(=O)[C@H](Cc4cnc[nH]4)NC(=O)[C@H](CCCCN)NC3=O)C(=O)N[C@@H](CCCNC(=N)N)C(=O)N[C@@H](CCCCN)C(=O)N[C@@H]([C@@H](C)O)C(=O)N2)NC(=O)[C@H](CCCNC(=N)N)NC(=O)[C@H](CO)NC(=O)[C@H](CCCCN)NC(=O)[C@@H]2CCCN2C(=O)[C@H]([C@@H](C)CC)NC(=O)[C@H]([C@@H](C)O)NC(=O)[C@H](CC(=O)O)NC1=O | 0.202 | 0.4
CC[C@H](C)[C@@H]1NC(=O)[C@@H](NC(=O)[C@H](CO)NC(=O)[C@@H](N)CCCNC(=N)N)CSSC[C@@H](C(=O)O)NC(=O)[C@H]([C@@H](C)O)NC(=O)CNC(=O)[C@@H]2CSSC[C@@H]3NC(=O)[C@H](CCC(N)=O)NC(=O)[C@H](Cc4ccccc4)NC(=O)[C@H](C)NC(=O)[C@H]([C@@H](C)O)NC(=O)[C@H](CSSC[C@H](NC(=O)[C@H](Cc4ccccc4)NC(=O)[C@H](CO)NC(=O)[C@H](CC(C)C)NC(=O)[C@H](CCCNC(=N)N)NC(=O)[C@H](Cc4ccc(O)cc4)NC(=O)[C@H](CCCCN)NC(=O)[C@H](CCSC)NC(=O)[C@H](CO)NC(=O)[C@H](Cc4cnc[nH]4)NC(=O)[C@H](CCCCN)NC3=O)C(=O)N[C@@H](CCC(=O)O)C(=O)N[C@@H](CCCCN)C(=O)N[C@@H]([C@@H](C)O)C(=O)N2)NC(=O)[C@H](CCCNC(=N)N)NC(=O)[C@H](CO)NC(=O)[C@H](CCCCN)NC(=O)[C@@H]2CCCN2C(=O)[C@H]([C@@H](C)CC)NC(=O)[C@H]([C@@H](C)O)NC(=O)[C@H](CC(=O)O)NC1=O | 0.73 | 1.96
CC[C@H](C)[C@@H]1NC(=O)[C@@H](NC(=O)[C@H](CO)NC(=O)[C@@H](N)CCCNC(=N)N)CSSC[C@@H](C(=O)O)NC(=O)[C@H]([C@@H](C)O)NC(=O)CNC(=O)[C@@H]2CSSC[C@@H]3NC(=O)[C@H](CCC(N)=O)NC(=O)[C@H](Cc4ccccc4)NC(=O)[C@H](C)NC(=O)[C@H]([C@@H](C)O)NC(=O)[C@H](CSSC[C@H](NC(=O)[C@H](Cc4ccccc4)NC(=O)[C@H](CO)NC(=O)[C@H](CC(C)C)NC(=O)[C@H](CCCNC(=N)N)NC(=O)[C@H](Cc4ccc(O)cc4)NC(=O)[C@H](CCCCN)NC(=O)[C@H](CCSC)NC(=O)[C@H](CO)NC(=O)[C@H](Cc4cnc[nH]4)NC(=O)[C@H](CCCCN)NC3=O)C(=O)N[C@@H](CCCNC(=N)N)C(=O)N[C@@H](Cc3cccc4ccccc34)C(=O)N[C@@H]([C@@H](C)O)C(=O)N2)NC(=O)[C@H](CCCNC(=N)N)NC(=O)[C@H](CO)NC(=O)[C@H](CCCCN)NC(=O)[C@@H]2CCCN2C(=O)[C@H]([C@@H](C)CC)NC(=O)[C@H]([C@@H](C)O)NC(=O)[C@H](CC(=O)O)NC1=O | 0.082 | 0.148
CC[C@H](C)[C@@H]1NC(=O)[C@@H](NC(=O)[C@H](CO)NC(=O)[C@@H](N)CCCNC(=N)N)CSSC[C@@H](C(=O)O)NC(=O)[C@H]([C@@H](C)O)NC(=O)CNC(=O)[C@@H]2CSSC[C@@H]3NC(=O)[C@H](CCC(N)=O)NC(=O)[C@H](Cc4ccccc4)NC(=O)[C@H](C)NC(=O)[C@H]([C@@H](C)O)NC(=O)[C@H](CSSC[C@H](NC(=O)[C@H](Cc4ccccc4)NC(=O)[C@H](CO)NC(=O)[C@H](CC(C)C)NC(=O)[C@H](CCCNC(=N)N)NC(=O)[C@H](Cc4ccc(O)cc4)NC(=O)[C@H](CCCCN)NC(=O)[C@H](CCSC)NC(=O)[C@H](CO)NC(=O)[C@H](Cc4cnc[nH]4)NC(=O)[C@H](CCCCN)NC3=O)C(=O)N[C@@H](CCCNC(=N)N)C(=O)N[C@@H](CCCCN)C(=O)N[C@@H]([C@@H](C)O)C(=O)N2)NC(=O)[C@H](CCCNC(=N)N)NC(=O)[C@H](CO)NC(=O)[C@H](CCCNC(=N)N)NC(=O)[C@@H]2CCCN2C(=O)[C@H]([C@@H](C)CC)NC(=O)[C@H]([C@@H](C)O)NC(=O)[C@H](CC(=O)O)NC1=O | 0.076 | 0.083
CC[C@H](C)[C@@H]1NC(=O)[C@@H](NC(=O)[C@H](CO)NC(=O)[C@@H](N)CCCNC(=N)N)CSSC[C@@H](C(=O)O)NC(=O)[C@H]([C@@H](C)O)NC(=O)CNC(=O)[C@@H]2CSSC[C@@H]3NC(=O)[C@H](CCC(N)=O)NC(=O)[C@H](Cc4ccccc4)NC(=O)[C@H](C)NC(=O)[C@H]([C@@H](C)O)NC(=O)[C@H](CSSC[C@H](NC(=O)[C@H](Cc4ccccc4)NC(=O)[C@H](CO)NC(=O)[C@H](CC(C)C)NC(=O)[C@H](CCCNC(=N)N)NC(=O)[C@H](Cc4ccc(O)cc4)NC(=O)[C@H](CCCCN)NC(=O)[C@H](CCSC)NC(=O)[C@H](CO)NC(=O)[C@H](Cc4cnc[nH]4)NC(=O)[C@H](CCCCN)NC3=O)C(=O)N[C@@H](CCCNC(=N)N)C(=O)N[C@@H](CCCCN)C(=O)N[C@@H]([C@@H](C)O)C(=O)N2)NC(=O)[C@H](CCCNC(=N)N)NC(=O)[C@H](CO)NC(=O)[C@H](CCCCN)NC(=O)[C@@H]2CCCN2C(=O)[C@H](CCCNC(=N)N)NC(=O)[C@H]([C@@H](C)O)NC(=O)[C@H](CC(=O)O)NC1=O | 6.56 | 10.1
CC[C@H](C)[C@@H]1NC(=O)[C@@H](NC(=O)[C@H](CO)NC(=O)[C@@H](N)CCCNC(=N)N)CSSC[C@@H](C(=O)O)NC(=O)[C@H]([C@@H](C)O)NC(=O)CNC(=O)[C@@H]2CSSC[C@@H]3NC(=O)[C@H](CCC(N)=O)NC(=O)[C@H](Cc4ccccc4)NC(=O)[C@H](C)NC(=O)[C@H]([C@@H](C)O)NC(=O)[C@H](CSSC[C@H](NC(=O)[C@H](Cc4ccccc4)NC(=O)[C@H](CO)NC(=O)[C@H](CC(C)C)NC(=O)[C@H](CCCNC(=N)N)NC(=O)[C@H](Cc4ccc(O)cc4)NC(=O)[C@H](CCCCN)NC(=O)[C@H](CCSC)NC(=O)[C@H](CO)NC(=O)[C@H](CCCCN)NC(=O)[C@H](CCCCN)NC3=O)C(=O)N[C@@H](CCCNC(=N)N)C(=O)N[C@@H](CCCCN)C(=O)N[C@@H]([C@@H](C)O)C(=O)N2)NC(=O)[C@H](CCCNC(=N)N)NC(=O)[C@H](CO)NC(=O)[C@H](CCCCN)NC(=O)[C@@H]2CCCN2C(=O)[C@H]([C@@H](C)CC)NC(=O)[C@H]([C@@H](C)O)NC(=O)[C@H](CC(=O)O)NC1=O | 0.041 | 0.089

— ChEMBL document CHEMBL3608278 (J Med Chem, 2015)
